# From patent publication US20040142899A1, “Compositions and methods for enhanced biostability and altered biodistribution of oligonucleotides in mammals” (ISIS Pharmaceuticals, Inc., priority 1990, published 2004)
# Assays:
# DNA = assay: Tm change due to pyrene conjugation, against DNA; type: binding; details: 100 mM Na+, 10 nM phosphate, 0.1 mM EDTA, pH 7, 4 μM strand concentration
# Method: (§1) Changes in Tm due to pyrene conjugation were evaluated against both DNA and RNA. Tm was measured in 100 mM Na^+, 10 nM phosphate, 0.1 mM EDTA, pH 7 at 4 μM strand concentration.
# RNA = assay: Tm change due to pyrene conjugation, against RNA; type: binding; details: 100 mM Na+, 10 nM phosphate, 0.1 mM EDTA, pH 7, 4 μM strand concentration
# Method: as §1
substance,measurement,setting,value
"5′-GCG-TGU*-CTG-CG (5'-GCG-TGU*-CTG-CG; 2'-O-aminohexyl uridine linker, as printed in the source, key not given here) [Oligomer 52, U* from 2′-O-[hexyl-(Ω-N-phthalimido)amino]uridine amidite; amino linker]",Tm v. DNA,DNA,50.9 °C
same,Tm v. RNA,RNA,55.5 °C
